Assays:
L1210 (1565) = assay: Compound was evaluated for the growth inhibition of […].; assay type: functional, cell-based
L1210 [1] = assay: Compound was evaluated for the growth inhibition of mouse L1210 (impaired) cells.; assay type: functional, cell-based
L1210 [2] = assay: Compound was evaluated for the growth inhibition of mouse L1210 cells.; assay type: functional, cell-based
Thymidylate synthase [3] = molecular target: T1, Thymidylate synthase (Mus musculus, UniProt P07607); assay: Compound was evaluated for the inhibition of Thymidylate synthase.
Thymidylate synthase [4] = molecular target: T1, Thymidylate synthase; assay: Compound was evaluated for the inhibition of Thymidylate synthase in experiment 1
L1210 [5] = assay: Compound was evaluated for the growth inhibition of mouse L1210 cells in experiment 1; assay type: functional, cell-based
L1210 [6] = assay: Compound was evaluated for the growth inhibition of mouse L1210 cells in experiment 2; assay type: functional, cell-based
Thymidylate synthase [7] = molecular target: T1, Thymidylate synthase; assay: Compound was evaluated for the inhibition of Thymidylate synthase in experiment 2

T1 sequence (P07607 whole entry): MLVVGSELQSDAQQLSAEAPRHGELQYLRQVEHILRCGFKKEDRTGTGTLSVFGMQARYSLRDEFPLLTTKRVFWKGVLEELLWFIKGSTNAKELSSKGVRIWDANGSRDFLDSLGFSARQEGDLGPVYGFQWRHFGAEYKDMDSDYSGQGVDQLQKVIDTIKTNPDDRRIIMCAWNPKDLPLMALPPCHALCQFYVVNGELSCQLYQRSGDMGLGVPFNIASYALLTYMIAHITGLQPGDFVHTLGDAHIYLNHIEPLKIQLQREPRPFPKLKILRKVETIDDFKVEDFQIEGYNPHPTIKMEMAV

| SMILES | IC50 (L1210 (1565)) [nM] | IC50 (L1210 [1]) [nM] | IC50 (L1210 [2]; Mus musculus, L1210) [nM] | IC50 (Thymidylate synthase [3]) [nM] | IC50 (L1210 [2]; l1210) [nM] | IC50 (Thymidylate synthase [4]) [nM] | IC50 (L1210 [5]) [nM] | IC50 (L1210 [6]) [nM] | IC50 (Thymidylate synthase [7]) [nM] |
| --- | --- | --- | --- | --- | --- | --- | --- | --- | --- |
| C#CCN(Cc1ccc2nc(C)nc(O)c2c1)c1ccc(C(=O)N[C@@H](CCC(=O)N[C@H](CCC(=O)O)C(=O)O)C(=O)O)cc1 | 16000 | 15000 | 330 | – | – | – | – | – | – |
| C#CCN(Cc1ccc2nc(C)[nH]c(=O)c2c1)c1ccc(C(=O)N[C@@H](CCC(=O)N[C@@H](CCc2nnn[nH]2)C(=O)O)C(=O)O)cc1 | 41000 | 44000 | – | – | – | 6 | 6200 | 4900 | 4 |
| C#CCN(Cc1cc2c(=O)[nH]c(C)nc2cc1C)c1ccc(C(=O)N[C@@H](CCC(=O)NC(CCC(=O)O)C(=O)O)C(=O)O)c(F)c1 (stereo in doubt) | 8700 | 6800 | 200 | – | – | 0.4 | – | – | 0.92 |

Stronger by IC50 (L1210 (1565)), values ahead:

| IC50 (L1210 (1565)) [nM] | IC50 (L1210 [1]) [nM] | IC50 (L1210 [2]; Mus musculus, L1210) [nM] | IC50 (Thymidylate synthase [3]) [nM] | IC50 (L1210 [2]; l1210) [nM] | IC50 (Thymidylate synthase [4]) [nM] | IC50 (L1210 [5]) [nM] | IC50 (L1210 [6]) [nM] | IC50 (Thymidylate synthase [7]) [nM] | SMILES |
| --- | --- | --- | --- | --- | --- | --- | --- | --- | --- |
| 1000 | 2000 | 350 | 1 | 260 | – | – | – | – | C#CCN(Cc1cc2c(O)nc(C)nc2cc1C)c1ccc(C(=O)N[C@@H](CCC(=O)N[C@@H](C)c2nnn[nH]2)C(=O)O)c(F)c1 |
| 7400 | 8000 | – | – | – | 0.82 | 1500 | 750 | 1.86 | C#CCN(Cc1cc2c(O)nc(C)nc2cc1C)c1ccc(C(=O)N[C@@H](CCC(=O)N[C@@H](CCc2nnn[nH]2)C(=O)O)C(=O)O)c(F)c1 |
